Test results published in paper PMC12073402, “A Selective MAP3K1 Inhibitor Facilitates Discovery of NPM1 as a Member of the Network” (Molecules, 2025).

Experiments:
Assay in all cases: KiNativ kinome profiling in PANC-1 lysate
Format in all cases: binding
SIK = target: T1, SIK (Homo sapiens, UniProt P57059); conditions: Lys1
T1 construct: endogenous in cells; host or cells: PANC-1 cell lysate
Summary of the method: (§1)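 PANC-1 lysates were incubated with 5 μM inhibitor or DMSO, then labeled with a desthiobiotin-ATP acyl-phosphate probe that biotinylates conserved kinase lysines. Tryptic peptides were streptavidin-enriched and quantified by LC-MS/MS, reported as % change in MS signal from duplicate treated and duplicate control samples.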

DRAK1 = target: T2, DRAK1 (Homo sapiens, UniProt Q9UEE5); conditions: Lys2
T2 construct: endogenous in cells; host or cells: PANC-1 lysate
T2 sequence (Q9UEE5 whole entry): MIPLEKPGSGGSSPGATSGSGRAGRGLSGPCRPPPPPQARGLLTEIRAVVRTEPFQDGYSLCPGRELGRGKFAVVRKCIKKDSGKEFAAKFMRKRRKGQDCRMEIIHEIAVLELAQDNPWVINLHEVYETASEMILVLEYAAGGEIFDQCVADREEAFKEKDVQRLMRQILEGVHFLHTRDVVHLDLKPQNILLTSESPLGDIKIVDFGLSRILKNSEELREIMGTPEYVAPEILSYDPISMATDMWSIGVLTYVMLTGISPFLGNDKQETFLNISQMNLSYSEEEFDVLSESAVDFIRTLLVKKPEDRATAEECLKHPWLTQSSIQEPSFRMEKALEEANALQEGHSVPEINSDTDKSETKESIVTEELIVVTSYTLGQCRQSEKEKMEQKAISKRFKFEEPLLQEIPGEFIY
Summary of the method: as §1

ULK1 = target: T3, ULK1 (Homo sapiens, UniProt O75385); conditions: Lys2
T3 construct: endogenous in cells; host or cells: PANC-1 cell lysate
Summary of the method: as §1

MAP2K6 = target: T4, MAP2K6 (Homo sapiens, UniProt P52564); conditions: for % Inhibition: 5 µM
T4 construct: endogenous in cells; host or cells: PANC-1 cell lysate
T4 sequence (P52564 1-334): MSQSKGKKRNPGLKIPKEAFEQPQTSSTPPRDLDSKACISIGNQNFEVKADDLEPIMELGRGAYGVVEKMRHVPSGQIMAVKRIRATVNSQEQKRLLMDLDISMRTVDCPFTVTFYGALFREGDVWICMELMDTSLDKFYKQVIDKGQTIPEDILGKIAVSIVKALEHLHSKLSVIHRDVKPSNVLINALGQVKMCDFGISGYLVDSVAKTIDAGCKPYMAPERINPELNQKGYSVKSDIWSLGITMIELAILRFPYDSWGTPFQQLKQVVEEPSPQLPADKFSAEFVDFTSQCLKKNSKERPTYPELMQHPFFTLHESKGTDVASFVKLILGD
Summary of the method: as §1

PAK2 = target: T5, PAK2 (Homo sapiens, UniProt Q13177)
T5 construct: endogenous in cells; host or cells: PANC-1 cell lysate
T5 sequence (Q13177 whole entry): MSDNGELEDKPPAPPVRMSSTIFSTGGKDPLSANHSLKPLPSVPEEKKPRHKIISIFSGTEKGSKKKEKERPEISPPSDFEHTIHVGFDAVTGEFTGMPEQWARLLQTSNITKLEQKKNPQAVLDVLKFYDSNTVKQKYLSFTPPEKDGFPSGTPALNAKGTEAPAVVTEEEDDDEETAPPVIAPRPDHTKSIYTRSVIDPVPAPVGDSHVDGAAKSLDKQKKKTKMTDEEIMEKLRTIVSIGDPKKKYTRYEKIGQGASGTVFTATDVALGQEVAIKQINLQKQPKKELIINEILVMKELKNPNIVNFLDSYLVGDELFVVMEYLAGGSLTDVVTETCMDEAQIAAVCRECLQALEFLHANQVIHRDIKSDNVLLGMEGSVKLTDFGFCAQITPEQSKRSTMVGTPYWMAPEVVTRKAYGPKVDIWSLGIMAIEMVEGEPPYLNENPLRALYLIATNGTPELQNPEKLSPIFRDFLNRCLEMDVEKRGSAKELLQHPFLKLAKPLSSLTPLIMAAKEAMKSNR
Summary of the method: as §1

NDR1 = target: T6, NDR1 (Homo sapiens, UniProt Q15208)
T6 construct: endogenous in cells; host or cells: PANC-1
T6 sequence (Q15208 whole entry): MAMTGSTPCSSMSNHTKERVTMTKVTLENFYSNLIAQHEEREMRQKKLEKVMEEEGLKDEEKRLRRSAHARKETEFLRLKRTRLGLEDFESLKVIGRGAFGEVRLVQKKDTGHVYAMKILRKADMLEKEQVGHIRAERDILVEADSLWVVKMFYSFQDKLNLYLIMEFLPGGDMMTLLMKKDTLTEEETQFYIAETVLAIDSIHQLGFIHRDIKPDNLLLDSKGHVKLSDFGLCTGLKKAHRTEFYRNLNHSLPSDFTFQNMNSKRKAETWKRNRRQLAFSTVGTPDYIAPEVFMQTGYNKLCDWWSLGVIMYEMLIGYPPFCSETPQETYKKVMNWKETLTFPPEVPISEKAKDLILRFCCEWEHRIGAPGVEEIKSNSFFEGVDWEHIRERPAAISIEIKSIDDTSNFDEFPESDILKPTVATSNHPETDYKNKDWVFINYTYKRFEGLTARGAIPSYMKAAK
Summary of the method: as §1

JAK1 domain1 = target: T7, JAK1 domain1 (Homo sapiens, UniProt P23458); conditions: ATP Loop
T7 construct: we opted to conduct a kinome screen (KiNativ) in PANC-1 cell lysates; endogenous in cells; host or cells: PANC-1 cell lysate
Summary of the method: as §1

PKCd = target: T8, PKCd (Homo sapiens, UniProt Q05655)
T8 construct: endogenous in cells; host or cells: PANC-1 cell lysate
T8 sequence (Q05655 whole entry): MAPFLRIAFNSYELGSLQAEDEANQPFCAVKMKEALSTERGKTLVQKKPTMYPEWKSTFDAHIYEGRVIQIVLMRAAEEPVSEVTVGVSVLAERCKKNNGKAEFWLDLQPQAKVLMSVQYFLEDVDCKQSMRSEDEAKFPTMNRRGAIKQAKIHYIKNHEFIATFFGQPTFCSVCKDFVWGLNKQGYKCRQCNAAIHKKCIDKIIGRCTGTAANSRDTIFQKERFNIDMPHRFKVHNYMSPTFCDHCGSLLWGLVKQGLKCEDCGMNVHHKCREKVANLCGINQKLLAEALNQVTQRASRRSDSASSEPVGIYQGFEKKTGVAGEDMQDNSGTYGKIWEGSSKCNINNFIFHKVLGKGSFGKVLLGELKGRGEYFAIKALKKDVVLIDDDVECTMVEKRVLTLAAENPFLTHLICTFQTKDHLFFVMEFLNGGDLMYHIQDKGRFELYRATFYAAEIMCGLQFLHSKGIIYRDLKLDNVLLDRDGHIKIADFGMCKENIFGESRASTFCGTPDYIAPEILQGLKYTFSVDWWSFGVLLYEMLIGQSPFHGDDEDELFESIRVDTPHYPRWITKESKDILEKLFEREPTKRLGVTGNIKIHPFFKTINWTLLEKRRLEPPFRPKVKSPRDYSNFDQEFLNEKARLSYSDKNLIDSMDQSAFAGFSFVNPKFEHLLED
Summary of the method: as §1

ZC1/HGK = target: T9, ZC1/HGK (Homo sapiens, UniProt O95819); conditions: Lys1
T9 construct: endogenous in cells; host or cells: PANC-1 cell lysate
Summary of the method: as §1

GAK = target: T10, GAK (Homo sapiens, UniProt O14976); conditions: Lys2
T10 construct: endogenous in cells; host or cells: PANC-1 lysate
Summary of the method: as §1

BARK1 = target: T11, BARK1 (Homo sapiens, UniProt P25098); conditions: Lys2
T11 construct: endogenous in cells; host or cells: PANC-1 cell lysate
Summary of the method: as §1

PIP4K2C = target: T12, PIP4K2C (Homo sapiens, UniProt Q8TBX8); conditions: ATP
T12 construct: endogenous in cells; host or cells: PANC-1 cell lysate
T12 sequence (Q8TBX8 whole entry): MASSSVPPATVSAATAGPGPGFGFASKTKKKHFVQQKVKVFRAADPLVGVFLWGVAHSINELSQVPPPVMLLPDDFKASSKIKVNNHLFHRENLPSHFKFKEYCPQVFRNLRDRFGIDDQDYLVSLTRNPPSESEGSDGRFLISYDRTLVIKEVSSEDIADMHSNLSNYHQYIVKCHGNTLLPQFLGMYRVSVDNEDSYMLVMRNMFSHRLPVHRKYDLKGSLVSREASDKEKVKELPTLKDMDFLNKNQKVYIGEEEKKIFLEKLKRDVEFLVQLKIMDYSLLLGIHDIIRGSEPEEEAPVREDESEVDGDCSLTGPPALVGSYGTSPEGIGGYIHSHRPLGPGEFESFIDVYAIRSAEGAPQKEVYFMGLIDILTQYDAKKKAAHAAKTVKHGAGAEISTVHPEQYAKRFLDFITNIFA
Summary of the method: as §1

NuaK1 = target: T13, NuaK1 (Homo sapiens, UniProt O60285); conditions: Lys1
T13 construct: endogenous in cells; host or cells: PANC-1 cell lysate
Summary of the method: as §1

p70S6Kb = target: T14, p70S6Kb (Homo sapiens, UniProt Q9UBS0); conditions: Lys2
T14 construct: endogenous in cells; host or cells: PANC-1 cell lysate
Summary of the method: as §1

TEC = target: T15, TEC (Homo sapiens, UniProt P42680); conditions: ATP Loop
T15 construct: endogenous in cells; host or cells: PANC-1 cell lysate
Summary of the method: as §1

CLK1 = target: T16, CLK1 (Homo sapiens, UniProt P49759); conditions: Lys2
T16 construct: endogenous in cells; host or cells: PANC-1 cell lysate
Summary of the method: as §1

AurA = target: T17, AurA (Homo sapiens, UniProt O14965)
T17 construct: endogenous in cells; host or cells: PANC-1 cell lysate
T17 sequence (O14965 whole entry): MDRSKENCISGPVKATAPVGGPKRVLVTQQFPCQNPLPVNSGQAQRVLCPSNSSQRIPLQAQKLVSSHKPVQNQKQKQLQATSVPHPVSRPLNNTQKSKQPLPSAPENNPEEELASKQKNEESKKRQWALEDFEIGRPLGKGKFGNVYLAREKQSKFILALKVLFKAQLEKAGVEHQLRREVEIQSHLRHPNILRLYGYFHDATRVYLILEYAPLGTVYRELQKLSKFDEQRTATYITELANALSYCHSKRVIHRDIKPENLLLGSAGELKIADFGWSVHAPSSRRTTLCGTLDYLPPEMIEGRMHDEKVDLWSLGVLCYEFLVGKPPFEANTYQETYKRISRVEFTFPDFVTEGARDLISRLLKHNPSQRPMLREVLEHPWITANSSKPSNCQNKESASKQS
Summary of the method: as §1

SRPK2 = target: T18, SRPK2 (Homo sapiens, UniProt P78362); conditions: Lys2
T18 construct: endogenous in cells; host or cells: PANC-1 cell lysate
Summary of the method: as §1

MARK1, MARK2 = conditions: 5 µM; Lys1; EVAVKIIDK
Summary of the method: as §1

EGFR, EGFR-L858R = target: T19, EGFR, EGFR-L858R (Homo sapiens, UniProt P00533)
T19 construct: endogenous in cells; host or cells: PANC-1 lysate
T19 sequence (P00533 25-1210 L858R): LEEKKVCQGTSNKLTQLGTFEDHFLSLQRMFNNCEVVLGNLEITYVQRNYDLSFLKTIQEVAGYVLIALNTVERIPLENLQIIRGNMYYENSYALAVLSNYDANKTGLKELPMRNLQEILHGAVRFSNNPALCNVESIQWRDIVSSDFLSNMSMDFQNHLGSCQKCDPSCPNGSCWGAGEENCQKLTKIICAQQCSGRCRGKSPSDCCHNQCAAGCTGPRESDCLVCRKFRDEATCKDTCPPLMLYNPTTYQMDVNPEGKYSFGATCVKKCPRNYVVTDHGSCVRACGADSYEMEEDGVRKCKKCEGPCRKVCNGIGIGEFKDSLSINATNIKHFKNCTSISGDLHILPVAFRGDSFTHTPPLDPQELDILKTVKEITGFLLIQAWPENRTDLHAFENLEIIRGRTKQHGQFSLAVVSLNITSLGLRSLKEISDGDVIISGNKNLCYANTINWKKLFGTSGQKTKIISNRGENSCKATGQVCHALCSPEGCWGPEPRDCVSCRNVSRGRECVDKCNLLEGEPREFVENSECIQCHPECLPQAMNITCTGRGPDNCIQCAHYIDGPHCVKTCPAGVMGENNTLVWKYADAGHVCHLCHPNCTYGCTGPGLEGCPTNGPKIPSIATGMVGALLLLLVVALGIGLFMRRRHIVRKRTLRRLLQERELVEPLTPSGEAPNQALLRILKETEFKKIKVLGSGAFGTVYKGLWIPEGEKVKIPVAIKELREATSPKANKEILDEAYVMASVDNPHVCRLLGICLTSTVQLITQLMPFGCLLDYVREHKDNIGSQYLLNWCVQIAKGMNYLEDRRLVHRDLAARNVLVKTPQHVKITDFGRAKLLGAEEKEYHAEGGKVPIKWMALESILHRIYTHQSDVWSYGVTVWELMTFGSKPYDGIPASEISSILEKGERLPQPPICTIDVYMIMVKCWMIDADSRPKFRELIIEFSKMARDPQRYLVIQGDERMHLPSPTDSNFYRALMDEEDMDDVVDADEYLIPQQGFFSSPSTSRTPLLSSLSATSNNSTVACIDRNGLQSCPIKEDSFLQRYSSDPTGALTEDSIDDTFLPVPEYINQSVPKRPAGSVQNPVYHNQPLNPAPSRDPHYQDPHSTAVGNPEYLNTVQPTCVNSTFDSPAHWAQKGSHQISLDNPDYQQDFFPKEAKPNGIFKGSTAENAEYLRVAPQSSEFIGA
Summary of the method: as §1

PKN1 = target: T20, PKN1 (Homo sapiens, UniProt Q16512)
T20 construct: endogenous in cells; host or cells: PANC-1 cell lysate
T20 sequence (Q16512 whole entry): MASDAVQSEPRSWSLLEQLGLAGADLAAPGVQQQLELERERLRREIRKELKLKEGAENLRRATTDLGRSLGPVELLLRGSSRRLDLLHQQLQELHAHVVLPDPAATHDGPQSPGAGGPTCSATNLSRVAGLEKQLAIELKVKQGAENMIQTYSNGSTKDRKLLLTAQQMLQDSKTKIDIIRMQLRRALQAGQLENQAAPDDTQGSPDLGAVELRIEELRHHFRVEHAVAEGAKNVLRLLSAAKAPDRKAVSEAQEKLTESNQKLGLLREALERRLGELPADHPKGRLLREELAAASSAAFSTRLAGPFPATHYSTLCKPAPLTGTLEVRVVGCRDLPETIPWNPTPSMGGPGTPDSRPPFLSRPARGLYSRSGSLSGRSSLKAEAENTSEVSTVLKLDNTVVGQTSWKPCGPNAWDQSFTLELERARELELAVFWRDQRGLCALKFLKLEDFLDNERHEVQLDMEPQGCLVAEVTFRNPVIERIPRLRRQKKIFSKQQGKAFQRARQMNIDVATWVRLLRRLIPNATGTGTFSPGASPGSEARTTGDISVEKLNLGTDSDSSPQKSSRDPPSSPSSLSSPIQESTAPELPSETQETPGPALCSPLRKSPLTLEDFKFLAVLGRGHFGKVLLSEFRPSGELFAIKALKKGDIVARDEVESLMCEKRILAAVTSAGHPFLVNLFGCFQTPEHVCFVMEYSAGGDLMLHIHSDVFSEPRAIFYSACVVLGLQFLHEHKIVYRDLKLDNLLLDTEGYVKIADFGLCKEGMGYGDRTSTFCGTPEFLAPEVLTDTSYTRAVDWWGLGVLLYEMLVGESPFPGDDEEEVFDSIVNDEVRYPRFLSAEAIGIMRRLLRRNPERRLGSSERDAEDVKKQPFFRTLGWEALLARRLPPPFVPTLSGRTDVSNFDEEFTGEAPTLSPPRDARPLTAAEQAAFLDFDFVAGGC
Summary of the method: as §1

Cn1cc(-c2cnc3ccc(NC(=O)Nc4ccc(F)c(C(F)(F)F)c4)cc3n2)cn1 [51-106, 1-(4-Fluoro-3-(trifluoromethyl)phenyl)-3-(3-(1-methyl-1H-pyrazol-4-yl)quinoxalin-6-yl)urea]
inhibition at 5 µM (SIK): 23.3%
inhibition at 5 µM (DRAK1): ≤ 0%
inhibition at 5 µM (ULK1): ≤ 0%
% Inhibition (MAP2K6; Lys1, HVPSGQIMAVKR): NB (NB = No Binding (≤ 0))
% Inhibition (MAP2K6; Lys2, DVKPSNVLINALGQVK): NB (NB = No Binding (≤ 0))
inhibition at 5 µM (MAP2K6; ATP Loop, […]): ≤ 0%
inhibition at 5 µM (PAK2; Lys1, IGQGASGTVFTATDVALGQEVAIKQINLQK): 6.9%
inhibition at 5 µM (PAK2; Other, KNPQAVLDVLKFYDSNTVK): 0.8%
inhibition at 5 µM (NDR1; Lys1, DTGHVYAMKILR): 6%
inhibition at 5 µM (NDR1; Lys2, DIKPDNLLLDSK): ≤ 0%
inhibition at 5 µM (JAK1 domain1): ≤ 0%
inhibition at 5 µM (PKCd; Lys2, DLKLDNVLLDR): 0.4%
inhibition at 5 µM (PKCd; Other, KPTMYPEWK): ≤ 0%
inhibition at 5 µM (ZC1/HGK): 3.1%
inhibition at 5 µM (GAK): 1%
inhibition at 5 µM (BARK1): 2.2%
inhibition at 5 µM (PIP4K2C; TLVIKEVSSEDIADMHSNLSNYHQYIVK): 21.8%
inhibition at 5 µM (PIP4K2C; VKELPTLKDMDFLNK): ≤ 0%
inhibition at 5 µM (NuaK1): ≤ 0%
inhibition at 5 µM (p70S6Kb): 22.5%
inhibition at 5 µM (TEC): 20.1%
inhibition at 5 µM (CLK1): 0.5%
% Inhibition (AurA; 5 µM, Lys2, DIKPENLLLGSAGELK): NB (NB = No Binding (≤ 0))
inhibition at 5 µM (AurA; Lys1, […]): ≤ 0%
inhibition at 5 µM (SRPK2): ≤ 0%
% Inhibition (MARK1, MARK2): NB (NB = No Binding (≤ 0))
inhibition at 5 µM (EGFR, EGFR-L858R; ATP Loop, LLGAEEKEYHAEGGKVPIK): ≤ 0%
inhibition at 5 µM (EGFR, EGFR-L858R; Lys1, IPVAIKELR): 5.5%
inhibition at 5 µM (PKN1; Lys1, VLLSEFRPSGELFAIKALK): ≤ 0%
inhibition at 5 µM (PKN1; Lys2, DLKLDNLLLDTEGYVK): 14.3%
